Data from US4861788A, “Antibacterial 1-normon-2-yl-heterocyclic compounds” (Beecham Group plc, priority 1983, dated 1989).
≈ marks a conversion by molar mass, not a printed value.

Assays:
[1] = tested on: M. hyorhinis ATCC 25021; experiment: MIC against Mycoplasma in vitro (Friis broth with agarose); assay type: cell-based; details: Mesomycoplasma hyorhinis, ATCC25021, 144 h
[2] = tested on: S. typhimurium S18; experiment: MIC against veterinary bacteria in vitro (Diagnostic Sensitivity Test Agar); details: Salmonella enterica, 18 h
Procedure: (§1) The activity of the normonyl derivatives of the Examples against various veterinarily important bacteria, was assayed in vitro using two-fold serial dilutions in Diagnostic Sensitivity Test Agar inoculated with 10^4 organisms.

[3] = tested on: M. hyorhinis ATCC 23234; experiment: MIC against Mycoplasma in vitro (Friis broth with agarose); assay type: cell-based; details: Mesomycoplasma hyorhinis, ATCC23234, 144 h
[4] = tested on: M. hyopneumoniae NCTC 101101; experiment: as above; assay type: cell-based; details: Mesomycoplasma hyopneumoniae, NCTC101101, 144 h
[5] = tested on: Erysipelothrix rhusiopathiae NCTC 8163; experiment: MIC against veterinary bacteria in vitro (Diagnostic Sensitivity Test Agar); details: NCTC8163, 18 h
Procedure: as §1

[6] = tested on: M. hyopneumoniae TAM 6N; experiment: MIC against Mycoplasma in vitro (Friis broth with agarose); assay type: cell-based; details: Mesomycoplasma hyopneumoniae, TAM6N, 144 h
[7] = tested on: Corynebacterium pyogenes CY1; experiment: MIC against veterinary bacteria in vitro (Diagnostic Sensitivity Test Agar); details: CY1, 18 h
Procedure: as §1

[8] = tested on: E. coli NCTC 10418; experiment: as above; details: Escherichia coli, NCTC10418, 18 h
Procedure: as §1

[9] = tested on: S. dublin S7; experiment: as above; details: Salmonella enterica, S7, 18 h
Procedure: as §1

[10] = tested on: M. dispar NCTC 10125; experiment: MIC against Mycoplasma in vitro (Friis broth with agarose); assay type: cell-based; details: 144 h
[11] = tested on: Strep. agalactiae SPA1; experiment: MIC against veterinary bacteria in vitro (Diagnostic Sensitivity Test Agar); details: Streptococcus agalactiae, SPA1, 18 h
Procedure: as §1

[12] = tested on: M. hyopneumoniae Str. 11; experiment: MIC against Mycoplasma in vitro (Friis broth with agarose); assay type: cell-based; details: Mesomycoplasma hyopneumoniae, STR.11, 144 h
[13] = tested on: Strep. dysgalactiae SPD1; experiment: MIC against veterinary bacteria in vitro (Diagnostic Sensitivity Test Agar); details: Streptococcus dysgalactiae, SPD1, 18 h
Procedure: as §1

[14] = tested on: Past. multocida PA1; experiment: as above; details: Pasteurella multocida, PA1, 18 h
Procedure: as §1

[15] = tested on: M. hyosynoviae ATCC 25591; experiment: MIC against Mycoplasma in vitro (Friis broth with agarose); assay type: cell-based; details: 144 h
[16] = tested on: Staph. aureus 152 (pen. sens); experiment: MIC against veterinary bacteria in vitro (Diagnostic Sensitivity Test Agar); details: Staphylococcus aureus, 18 h
Procedure: as §1

[17] = tested on: Past. haemolytica PA5; experiment: as above; details: Mannheimia haemolytica, PA5, 18 h
Procedure: as §1

[18] = tested on: Bord. bronchiseptica B08; experiment: as above; details: Bordetella bronchiseptica, B08, 18 h
Procedure: as §1

[19] = tested on: Strep. uberis SPU1; experiment: as above; details: Streptococcus uberis, SPU1, 18 h
Procedure: as §1

[20] = tested on: M. pneumoniae ATCC 15492; experiment: MIC against Mycoplasma in vitro (Friis broth with agarose); assay type: cell-based; details: Mycoplasmoides pneumoniae, ATCC15492, 144 h
[21] = tested on: Bord. bronchiseptica B09; experiment: MIC against veterinary bacteria in vitro (Diagnostic Sensitivity Test Agar); details: Bordetella bronchiseptica, B09, 18 h
Procedure: as §1

[22] = tested on: M. bovis NCTC 10131; experiment: microbe, parasite or virus in culture; assay type: cell-based; details: NCTC10131, 144 h
[23] = tested on: M. gallisepticum S6; experiment: MIC against Mycoplasma in vitro (Friis broth with agarose); assay type: cell-based; details: Mycoplasmoides gallisepticum, S6, 144 h
[24] = tested on: M. hyopneumoniae ATCC 25095; experiment: as above; assay type: cell-based; details: Mesomycoplasma hyopneumoniae, ATCC25095, 144 h
[25] = tested on: M. hyopneumoniae MS 16; experiment: as above; assay type: cell-based; details: Mesomycoplasma hyopneumoniae, MS16, 144 h
[26] = tested on: Past. multocida PA2; experiment: MIC against veterinary bacteria in vitro (Diagnostic Sensitivity Test Agar); details: Pasteurella multocida, PA2, 18 h
Procedure: as §1

[27] = tested on: M. hyopneumoniae UCD 1; experiment: MIC against Mycoplasma in vitro (Friis broth with agarose); assay type: cell-based; details: Mesomycoplasma hyopneumoniae, UCD1, 144 h
[28] = tested on: Strep. suis (group D) SPS11; experiment: MIC against veterinary bacteria in vitro (Diagnostic Sensitivity Test Agar); details: Streptococcus suis, 18 h
Procedure: as §1

[29] = tested on: Staph. aureus B4 (pen. resistant); experiment: as above; details: Staphylococcus aureus, 18 h
Procedure: as §1

[30] = tested on: M. bovigenitalium ATCC 14173; experiment: MIC against Mycoplasma in vitro (Friis broth with agarose); assay type: cell-based; details: 144 h

CC(=CC(=O)NN)CC1OCC(CC2OC2C(C)C(C)O)C(O)C1O (stereo not drawn) [Example 9, Monohydrazide A]
MIC [1]: 10 µg/mL (≈ 27.9 µM) | MIC [2]: > 80 µg/mL | MIC [3]: > 10 µg/mL | MIC [4]: 10 µg/mL (≈ 27.9 µM) | MIC [5]: > 80 µg/mL | MIC [6]: 10 µg/mL (≈ 27.9 µM) | MIC [7]: > 80 µg/mL | MIC [8]: > 80 µg/mL | MIC [9]: > 80 µg/mL | MIC [10]: 2.5 µg/mL (≈ 6.97 µM) | MIC [11]: > 80 µg/mL | MIC [12]: 5 µg/mL (≈ 13.9 µM) | MIC [13]: > 80 µg/mL | MIC [14]: 40 µg/mL (≈ 112 µM) | MIC [15]: 10 µg/mL (≈ 27.9 µM) | MIC [16]: 80 µg/mL (≈ 223 µM) | MIC [17]: 40 µg/mL (≈ 112 µM) | MIC [18]: > 80 µg/mL | MIC [19]: 80 µg/mL (≈ 223 µM) | MIC [20]: > 10 µg/mL | MIC [21]: > 80 µg/mL | MIC [22]: 0.5 µg/mL (≈ 1.39 µM) | MIC [23]: > 10 µg/mL | MIC [24]: 5 µg/mL (≈ 13.9 µM) | MIC [25]: 5 µg/mL (≈ 13.9 µM) | MIC [26]: 80 µg/mL (≈ 223 µM) | MIC [27]: 10 µg/mL (≈ 27.9 µM) | MIC [28]: > 80 µg/mL | MIC [29]: 80 µg/mL (≈ 223 µM) | MIC [30]: 0.5 µg/mL (≈ 1.39 µM)
